# Measurements: patent US10208023B2, “Heterocyclic inhibitors of the sodium channel” (priority 2013, dated 2019)
# Where two headings read alike, the source gives them in different places.
# What was measured:
# formalin test in rats = experiment: Formalin test in rats (automated flinch detection); format: in vivo; conditions: rat; for Phase 1 paw flinches: Phase I (0-9 mins); for Total Phase 2 paw flinches: Phase II (10-60 mins); for Phase 2a paw flinches: Phase IIA (10-40 mins); for Phase 2b paw flinches: Phase IIB (41-60 mins)
# Method: The formalin test in rats was performed as previously described (McNamara, 2007. Proc. Natl. Acad. Sci., vol 104, page 13525) using an automated flinch-detecting system (T. Yaksh, University of California at San Diego, La Jolla, Calif.). On the day of testing, a small metal band (0.5 g) was loosely placed around the right hind paw of a male Sprague-Dawley rat (average weight, ˜250 g). The rats were allowed to acclimate to a Plexiglas chamber for at least 30 min before testing. Formalin was then injected (50 μl of 2.5% formalin, diluted in saline) into the dorsal surface of the right hind paw of the rat, and the animal was put into a chamber of the automated formalin apparatus where movement of the formalin-injected paw was recorded. The number of paw flinches per minute was tallied for the next 60 minutes. The time interval phases were defined as follows: Phase I (0-9 mins), Phase II (10-60 mins), Phase IIA (10-40 mins), and Phase IIB (41-60 mins). The following compounds were administered 1 hour prior to formalin administration. Compound 52 from Table 1 was administered by oral gavage in 4% DMSO, 10% Solutol, 86% H2O. Gabapentin was administered subcutaneously in 0.9% NaCl (aq). 4.
# hNav1.7 = hNav1.7 (Homo sapiens (Human), UniProt Q15858); experiment: Nav1.7 potency, Patchliner automated patch clamp; format: cell-based; conditions: automated patchclamp
# Chain of hNav1.7 (Q15858 whole entry): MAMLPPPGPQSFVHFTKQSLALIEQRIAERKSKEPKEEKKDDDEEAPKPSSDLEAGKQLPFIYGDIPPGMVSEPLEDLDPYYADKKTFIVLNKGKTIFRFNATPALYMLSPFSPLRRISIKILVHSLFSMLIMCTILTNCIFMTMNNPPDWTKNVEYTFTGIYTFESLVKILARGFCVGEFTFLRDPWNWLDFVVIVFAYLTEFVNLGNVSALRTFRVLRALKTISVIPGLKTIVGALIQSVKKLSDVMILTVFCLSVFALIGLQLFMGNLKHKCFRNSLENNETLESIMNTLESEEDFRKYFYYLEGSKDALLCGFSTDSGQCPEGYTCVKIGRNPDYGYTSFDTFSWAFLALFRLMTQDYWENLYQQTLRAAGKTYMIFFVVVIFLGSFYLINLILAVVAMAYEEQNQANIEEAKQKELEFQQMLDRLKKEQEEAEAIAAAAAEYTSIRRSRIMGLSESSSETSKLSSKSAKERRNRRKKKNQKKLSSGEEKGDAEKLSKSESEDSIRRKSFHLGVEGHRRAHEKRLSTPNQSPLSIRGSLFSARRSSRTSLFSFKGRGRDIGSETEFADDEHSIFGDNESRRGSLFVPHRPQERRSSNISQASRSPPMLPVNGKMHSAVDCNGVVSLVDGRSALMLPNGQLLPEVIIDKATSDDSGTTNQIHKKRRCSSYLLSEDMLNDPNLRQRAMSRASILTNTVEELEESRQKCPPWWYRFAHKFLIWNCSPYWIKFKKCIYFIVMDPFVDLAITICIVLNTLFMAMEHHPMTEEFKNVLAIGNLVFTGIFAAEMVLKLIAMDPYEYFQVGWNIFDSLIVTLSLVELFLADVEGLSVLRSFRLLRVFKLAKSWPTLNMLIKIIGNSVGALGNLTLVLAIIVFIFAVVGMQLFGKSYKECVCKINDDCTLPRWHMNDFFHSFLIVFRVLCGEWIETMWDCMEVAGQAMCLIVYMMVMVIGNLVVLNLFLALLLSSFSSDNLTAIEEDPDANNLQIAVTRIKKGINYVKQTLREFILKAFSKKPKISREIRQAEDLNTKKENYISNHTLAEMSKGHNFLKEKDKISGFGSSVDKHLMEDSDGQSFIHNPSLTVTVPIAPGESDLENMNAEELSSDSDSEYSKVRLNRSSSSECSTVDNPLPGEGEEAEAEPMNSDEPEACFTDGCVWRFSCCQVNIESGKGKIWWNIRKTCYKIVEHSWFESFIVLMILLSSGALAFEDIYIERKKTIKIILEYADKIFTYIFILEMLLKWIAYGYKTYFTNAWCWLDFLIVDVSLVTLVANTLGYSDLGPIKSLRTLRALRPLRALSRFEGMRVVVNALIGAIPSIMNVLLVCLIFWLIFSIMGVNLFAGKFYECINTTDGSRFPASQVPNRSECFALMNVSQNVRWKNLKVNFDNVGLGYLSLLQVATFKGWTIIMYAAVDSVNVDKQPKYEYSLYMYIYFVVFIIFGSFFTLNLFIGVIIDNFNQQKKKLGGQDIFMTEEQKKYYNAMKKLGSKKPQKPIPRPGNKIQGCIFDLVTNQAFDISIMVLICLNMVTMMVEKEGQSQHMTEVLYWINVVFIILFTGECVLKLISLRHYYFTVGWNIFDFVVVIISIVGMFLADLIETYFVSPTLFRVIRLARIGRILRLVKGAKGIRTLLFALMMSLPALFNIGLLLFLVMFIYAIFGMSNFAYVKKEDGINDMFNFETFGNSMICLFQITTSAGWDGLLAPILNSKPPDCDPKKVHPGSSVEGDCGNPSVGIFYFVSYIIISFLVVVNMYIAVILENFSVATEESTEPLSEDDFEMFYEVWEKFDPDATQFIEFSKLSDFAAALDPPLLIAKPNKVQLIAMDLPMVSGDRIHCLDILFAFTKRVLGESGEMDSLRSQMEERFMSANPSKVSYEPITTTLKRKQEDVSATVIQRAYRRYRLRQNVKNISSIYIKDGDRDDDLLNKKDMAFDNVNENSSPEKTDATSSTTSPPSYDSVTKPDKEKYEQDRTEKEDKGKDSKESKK
# Chain of hNav1.7 (Q07699 19-218 partner): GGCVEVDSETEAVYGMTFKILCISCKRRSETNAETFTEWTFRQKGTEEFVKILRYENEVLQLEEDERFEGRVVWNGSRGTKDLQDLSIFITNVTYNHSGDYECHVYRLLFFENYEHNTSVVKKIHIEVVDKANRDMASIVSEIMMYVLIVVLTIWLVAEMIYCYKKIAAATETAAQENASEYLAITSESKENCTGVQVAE
# Method: The generation of a HEK 293F cell line stably expressing human Nav1.7/Navβ1 was achieved by co-transfecting human SCN9A and human SCN1B cDNAs, subcloned into plasmid vectors, utilizing standard transfection techniques. Clones were selected using appropriate selection agents (0.3 mg/mL Zeocin and 0.8 mg/mL Geneticin) and maintained in Dulbecco's Modified Eagle medium, 10% fetal bovine serum, 1% non-essential amino acids to ˜80% confluence at 37° C. in a humidified incubator with 95% atmosphere and 5% CO2.
# In some cases, the potency of compounds was measured using either the Patchliner automated patch clamp platform (Nanion) or manual patch clamp techniques. Both approaches allowed the compounds to be characterized based upon the ability of a compound to modulate use- and/or state-dependence. The potency data is tabulated in Table 3 and is represented by eight data fields. The first four fields represent potency data measured with the Patchliner automated platform under varying use- and state-dependent electrophysiology protocols similar to the Patch express protocols detailed above. The first data column describes the potency of compounds when the Nav1.7 channel is being repetitively activated at a 7 Hz hyperpolarization frequency (Table 3: hNav1.7: IC50 of inward current block at 7 Hz, Automated patchclamp). The second data column represents the potency at which 50% of the initial hyperpolarization pulse is inhibited by the compounds (Table 3: hNav1.7: IC50 of P1 block, Automated patchclamp). The third data column details the potency of compounds in their ability to block 50% of Nav1.7 channels when these channels are induced into the slow inactivated state (Table 3: hNav1.7: IC50 of slow inactivation block, Automated patchclamp). […] The next three data fields describe the data generated from manual patchclamp electrophysiology measurements using similar methods to those employed for automated patchclamp studies. […] The last column characterizes the state-dependence of compound inhibition. […]
# [1] = 100 mg/kg SC 1 hour prior to formalin
# [2] = 3 mg/kg oral gavage 1 hour prior to formalin
# [3] = 10 mg/kg oral gavage 1 hour prior to formalin
# [4] = 30 mg/kg oral gavage 1 hour prior to formalin
smiles,measurement,setting,value
"NCC1(CC(=O)O)CCCCC1 [Gabapentin, reference compound]",Phase 1 paw flinches,formalin test in rats; [1],320 ± 58
same,Total Phase 2 paw flinches,formalin test in rats; [1],562 ± 213
same,Phase 2a paw flinches,formalin test in rats; [1],486 ± 202
same,Phase 2b paw flinches,formalin test in rats; [1],77 ± 47
"NC1(c2nc3cc(C(F)(F)F)cc(C(F)(F)F)c3[nH]2)Cc2ccccc2C1 [Compound 52, 2-(4,6-bis(trifluoromethyl)-1H-benzo[d]imidazol-2-yl)-2,3-dihydro-1H-inden-2-amine]",Phase 1 paw flinches,formalin test in rats; [2],345 ± 75
same,Total Phase 2 paw flinches,formalin test in rats; [2],1365 ± 174
same,Phase 2a paw flinches,formalin test in rats; [2],988 ± 139
same,Phase 2b paw flinches,formalin test in rats; [2],377 ± 79
same,Phase 1 paw flinches,formalin test in rats; [3],315 ± 58
same,Total Phase 2 paw flinches,formalin test in rats; [3],962 ± 189
same,Phase 2a paw flinches,formalin test in rats; [3],758 ± 199
same,Phase 2b paw flinches,formalin test in rats; [3],204 ± 66
same,Phase 1 paw flinches,formalin test in rats; [4],333 ± 75
same,Total Phase 2 paw flinches,formalin test in rats; [4],853 ± 259
same,Phase 2a paw flinches,formalin test in rats; [4],706 ± 261
same,Phase 2b paw flinches,formalin test in rats; [4],147 ± 101
"N[C@H](Cc1cccc(C(F)(F)F)c1)C(=O)NCc1nc2c(C(F)(F)F)cc(C(F)(F)F)cc2[nH]1 [Compound 75, (R)-2-amino-N-((4,6-bis(trifluoromethyl)-1H-benzo[d]imidazol-2-yl)methyl)-3-(3-(trifluoromethyl)phenyl) propanamide]",IC50,"hNav1.7; 7 Hz, read-out: Nav1.7 IC50 INWARD CURRENT BLOCK (nM) (7 Hz, Automated Patchclamp)",15000 nM
same,IC50,"hNav1.7; initial pulse (P1), read-out: Nav1.7 IC50 P1 BLOCK (nM) (Automated Patchclamp)",15000 nM
same,IC50,"hNav1.7; slow inactivated state, read-out: Nav1.7 IC50 SLOW INACTIVATION BLOCK (nM) (Automated Patchclamp)",15000 nM
